# Test results: patent US12357607B2, “Compositions and methods for intravenous administration of 2-bromo-1-(3,3-dinitroazetidin-1-yl)ethanone” (EpicentRx, Inc., priority 2016, dated 2025)
# Test: Phase 1 dose-escalation study: intravenous aqueous solution of ABDNAZ; safety, tolerability, adverse events
# Assay type: in vivo, human
# Method: An aqueous solution of ABDNAZ was intravenously administered to twenty-five human patients as part of a Phase I clinical study. The aqueous solution contained ABDNAZ (2 mg/mL), polyethylene glycol having a number average molecular weight of 400 g/mol (6% w/w), dimethylacetamide (3% w/w), and water for injection. Patients were administered a volume of the aqueous solution of ABDNAZ sufficient to deliver a dose of ABDNAZ in the amount of 10 mg/m^2, 16.7 mg/m^2, 24.6 mg/m^2, 33 mg/m^2, 55 mg/m^2, or 83 mg/m^2. Pain at the injection site due to administration of the aqueous solution of ABDNAZ was experienced by 84% of patients. […] Thereafter, peripheral intravenous delivery in the antecubital or forearm area was used and a longer duration of time was used to perform the infusion (e.g., ranging from 2 hours to 8 hours, while administering at a rate of 3.5 mL/hour that could be adjusted up or down in 0.5 mL/hour increments based on patients' ability to tolerate the infusion).
# In this open-label, human, dose-escalation phase 1 study, a 3+3 dose-escalation design was used to assess safety, tolerability, and pharmacokinetics of ABDNAZ. Patients were enrolled from the University of California-San Diego Moores Cancer Center, La Jolla, CA, USA, and the Sarah Cannon Research Institute, Nashville, TN, USA. […] Previous antineoplastic therapies had to have been discontinued at least 6 weeks before intervention start, and patients could show no residual side-effects of previous therapies. Patients were required to practice effective contraception while receiving ABDNAZ. All patients had evaluable disease. Key exclusion criteria included hypoalbuminaemia (albumin <30 g/L), active brain metastases (although patients with stable brain metastases were eligible), pregnancy or breast feeding, any other clinically significant illness or psychiatric disorder that could affect compliance or endpoint assessments, and concurrent use of any other investigational drugs.
# Screening assessments were done at the clinical site less than 16 days before treatment initiation and included an electrocardiogram, urinalysis, Modified Borg Dyspnea Assessment, pulse oximetry, and radiographic tumour measurement. A medical history, physical examination, pregnancy test, performance status, complete blood count, a comprehensive serum chemistry, and urinalysis were done within 16 days of the first dosing.
# The protocol was reviewed and approved by the investigational review boards at the Moores Cancer Center and the Sarah Cannon Research Institute. All procedures were performed in accordance with the principles established by the Helsinki Declaration. Patients gave written informed consent for all clinical and research aspects of the study before enrolment, which was done according to national and institutional guidelines.
# An aqueous solution of ABDNAZ was intravenously administered to patients. The aqueous solution contained ABDNAZ (2 mg/mL), polyethylene glycol having a number average molecular weight of 400 g/mol (6% w/w), dimethylacetamide (3% w/w), and water for injection. Patients were administered a volume of the aqueous solution of ABDNAZ sufficient to deliver a dose of ABDNAZ in the amount of 10 mg/m^2, 16.7 mg/m^2, 24.6 mg/m^2, 33 mg/m^2, 55 mg/m^2, or 83 mg/m^2. Three patients were given a starting dose of 10 mg/m^2 of ABDNAZ before dose escalation (to 16.7 mg/m^2, 24.6 mg/m^2, 33 mg/m^2, 55 mg/m and 83 mg/m^2), with at least three patients per dose cohort, allowing a 2-week observation period before dose escalation. […] Thereafter, peripheral intravenous delivery in the antecubital or forearm area was used and a longer duration of time was used to perform the infusion (e.g., ranging from 2 hours to 8 hours, while administering at a rate of 3.5 mL/hour that could be adjusted up or down in 0.5 mL/hour increments based on patients' ability to tolerate the infusion). […]
# [1] = 10 mg/m^2 dose (n = 6), number of patients
# [2] = 16.7 mg/m^2 dose (n = 3), number of patients
# [3] = 24.6 mg/m^2 dose (n = 3), number of patients
# [4] = 33 mg/m^2 dose (n = 4), number of patients
# [5] = 55 mg/m^2 dose (n = 3), number of patients
# [6] = 83 mg/m^2 dose (n = 6), number of patients
# [7] = twenty-five patients, all dose cohorts
# [8] = twenty-five patients, all dose cohorts 10-83 mg/m^2
compound,measurement,setting,value
"O=C(CBr)N1CC([N+](=O)[O-])([N+](=O)[O-])C1 [ABDNAZ, 2-bromo-1-(3,3-dinitroazetidin-1-yl)ethanone]","Dyspnoea or wheezing, Grade 1-2, share of patients",10 mg/m^2 dose (n = 6),(17%)
same,"Infusion-site pain, Grade 1-2, share of patients",10 mg/m^2 dose (n = 6),(67%)
same,"Arm swelling or oedema, Grade 1-2",[1],0
same,"Arm swelling or oedema, Grade 3",[1],0
same,"Dyspnoea or wheezing, Grade 1-2",[1],1
same,"Dyspnoea or wheezing, Grade 3",[1],0
same,"Infusion-site pain, Grade 1-2",[1],4
same,"Infusion-site pain, Grade 3",[1],0
same,"Mouth tingling or burning, Grade 1-2",[1],0
same,"Mouth tingling or burning, Grade 3",[1],0
same,"Vein hardening, Grade 1-2",[1],0
same,"Vein hardening, Grade 3",[1],0
same,"Arm swelling or oedema, Grade 1-2, share of patients",16.7 mg/m^2 dose (n = 3),(33%)
same,"Infusion-site pain, Grade 1-2, share of patients",16.7 mg/m^2 dose (n = 3),(100%)
same,"Arm swelling or oedema, Grade 1-2",[2],1
same,"Arm swelling or oedema, Grade 3",[2],0
same,"Dyspnoea or wheezing, Grade 1-2",[2],0
same,"Dyspnoea or wheezing, Grade 3",[2],0
same,"Infusion-site pain, Grade 1-2",[2],3
same,"Infusion-site pain, Grade 3",[2],0
same,"Mouth tingling or burning, Grade 1-2",[2],0
same,"Mouth tingling or burning, Grade 3",[2],0
same,"Vein hardening, Grade 1-2",[2],0
same,"Vein hardening, Grade 3",[2],0
same,"Infusion-site pain, Grade 1-2, share of patients",24.6 mg/m^2 dose (n = 3),(33%)
same,"Arm swelling or oedema, Grade 1-2",[3],0
same,"Arm swelling or oedema, Grade 3",[3],0
same,"Dyspnoea or wheezing, Grade 1-2",[3],0
same,"Dyspnoea or wheezing, Grade 3",[3],0
same,"Infusion-site pain, Grade 1-2",[3],1
same,"Infusion-site pain, Grade 3",[3],0
same,"Mouth tingling or burning, Grade 1-2",[3],0
same,"Mouth tingling or burning, Grade 3",[3],0
same,"Vein hardening, Grade 1-2",[3],0
same,"Vein hardening, Grade 3",[3],0
same,"Arm swelling or oedema, Grade 2, share of patients",33 mg/m^2 dose (n = 4),(25%)
same,"Infusion-site pain, Grade 2, share of patients",33 mg/m^2 dose (n = 4),(75%)
same,"Infusion-site pain, Grade 3, share of patients",33 mg/m^2 dose (n = 4),(25%)
same,"Vein hardening, Grade 2, share of patients",33 mg/m^2 dose (n = 4),(25%)
same,"Arm swelling or oedema, Grade 2",[4],1
same,"Arm swelling or oedema, Grade 3",[4],0
same,"Dyspnoea or wheezing, Grade 2",[4],0
same,"Dyspnoea or wheezing, Grade 3",[4],0
same,"Infusion-site pain, Grade 2",[4],3
same,"Infusion-site pain, Grade 3",[4],1
same,"Mouth tingling or burning, Grade 2",[4],0
same,"Mouth tingling or burning, Grade 3",[4],0
same,"Vein hardening, Grade 2",[4],1
same,"Vein hardening, Grade 3",[4],0
same,"Arm swelling or oedema, Grade 1-2, share of patients",55 mg/m^2 dose (n = 3),(67%)
same,"Dyspnoea or wheezing, Grade 1-2, share of patients",55 mg/m^2 dose (n = 3),(33%)
same,"Infusion-site pain, Grade 1-2, share of patients",55 mg/m^2 dose (n = 3),(100%)
same,"Mouth tingling or burning, Grade 1-2, share of patients",55 mg/m^2 dose (n = 3),(67%)
same,"Vein hardening, Grade 1-2, share of patients",55 mg/m^2 dose (n = 3),(33%)
same,"Arm swelling or oedema, Grade 1-2",[5],2
same,"Arm swelling or oedema, Grade 3",[5],0
same,"Dyspnoea or wheezing, Grade 1-2",[5],1
same,"Dyspnoea or wheezing, Grade 3",[5],0
same,"Infusion-site pain, Grade 1-2",[5],3
same,"Infusion-site pain, Grade 3",[5],0
same,"Mouth tingling or burning, Grade 1-2",[5],2
same,"Mouth tingling or burning, Grade 3",[5],0
same,"Vein hardening, Grade 1-2",[5],1
same,"Vein hardening, Grade 3",[5],0
same,"Arm swelling or oedema, Grade 1-2, share of patients",83 mg/m^2 dose (n = 6),(67%)
same,"Dyspnoea or wheezing, Grade 1-2, share of patients",83 mg/m^2 dose (n = 6),(50%)
same,"Infusion-site pain, Grade 1-2, share of patients",83 mg/m^2 dose (n = 6),(100%)
same,"Mouth tingling or burning, Grade 1-2, share of patients",83 mg/m^2 dose (n = 6),(33%)
same,"Vein hardening, Grade 1-2, share of patients",83 mg/m^2 dose (n = 6),(83%)
same,"Arm swelling or oedema, Grade 1-2",[6],4
same,"Arm swelling or oedema, Grade 3",[6],0
same,"Dyspnoea or wheezing, Grade 1-2",[6],3
same,"Dyspnoea or wheezing, Grade 3",[6],0
same,"Infusion-site pain, Grade 1-2",[6],6
same,"Infusion-site pain, Grade 3",[6],0
same,"Mouth tingling or burning, Grade 1-2",[6],2
same,"Mouth tingling or burning, Grade 3",[6],0
same,"Vein hardening, Grade 1-2",[6],5
same,"Vein hardening, Grade 3",[6],0
same,"Pain at the injection site, grade",all dose cohorts 10-83 mg/m^2,mostly grade 1 and grade 2
same,Patients needing dose reduction to 33 mg/m^2 because of localized infusion pain,highest dose cohort (83 mg/m^2),Three
same,Maximally feasible dose,limited by time constraints related to management of infusion pain,83 mg/m^2
same,Patients needing dose reduction to 33 mg/m^2 because of localized infusion pain,penultimate dose cohort (55 mg/m^2),one
same,"Arm swelling or oedema, number of patients",[7],eight
same,"Arm swelling or oedema, share of patients",[7],32%
same,"Vein hardening, number of patients",[7],seven
same,"Vein hardening, share of patients",[7],28%
same,"Pain at the injection site, number of patients",[8],21 patients
same,"Pain at the injection site, share of patients",[8],84%
